Assay results as given in patent US9757477B2, “Imaging brown adipose tissue with curcumin derivatives” (The General Hospital Corporation, priority 2013, dated 2017).

What was measured:
[1] = system: interscapular BAT; assay: Re-testing of hits with stepwise dissection and NIR imaging; type: in vivo, mice
Experimental: Like protein/cell-based screening, hit re-testing experiments were conducted to validate the reliability of this approach. CRANAD-2, -3, LDS 722 and Rhodamine 640 were subjected to re-testing by repeating the above imaging procedure. Images were acquired one hour after probe injection.
Next, stepwise dissection and imaging were performed to track the source of the fluorescence contrast at the interscapular site. Skin and the thin WAT layer that covers BAT were first removed, and then BAT was dissected, and NIR images were captured at each step. […] The signal contribution from BAT (R(BAT)) was roughly estimated using the ratio of fluorescence signals acquired after (F(BAT)) and before (F(intact)) the first step dissection of skin and WAT.

[2] = system: interscapular BAT; assay: Time course and dose optimization of probe signal in BAT area after i.v. injection; type: in vivo, mice
Experimental: (§1) Next the time course of CRANAD-2 and CRANAD-3 accumulation in BAT area was investigated. […] Similarly, the signal of CRANAD-3 reached the uptake peak around one hour, and then gradually washed out (FIG. 8c-d). Accumulation of CRANAD-2 and -3 in BAT was further confirmed with ex vivo histology of the dissected BAT slices, performed as follows. The dissected BAT was fixed with 4% formalin at 4° C. overnight, and then embedded into OCT. BAT tissue was cut into 7 micron thickness slices, washed with PBS buffer, and co-stained with DAPI (Vectra Shield, Vector Lab, Burlingame, Calif.). Images were acquired with fast exposure to capture the dye signal in the oil droplets. To outline cell membrane cell autofluorescence was captured with long exposure after image of the dye signal from oil droplets was already acquired. To further validate the capacity of CRANAD-29 for BAT labeling, ex vivo histological microscopic imaging with CRANAD-29 was conducted. […] Gold standard H&E staining also provided similar images (FIG. 10a). […] The injection dose of CRANAD-29 was optimized, and the fluorescence signal reached its plateau at 0.4 mg/kg (FIG. 11). In the following studies, 0.1 mg/kg dose was used.

[3] = system: brown adipose cells; assay: Ex vivo histology of dissected BAT slices; parameters: species or system mice; conditions: fluorescence microscopy
Experimental: as §1

[4] = system: BAT cells induced from wild-type brown preadipocytes; assay: In vitro staining of BMPs-induced BAT cells (live cell confocal); type: cell-based; conditions: live cell confocal images
[5] = system: undifferentiated 3T3-L1 cells; assay: Probe uptake in undifferentiated 3T3-L1 cells (IVIS imaging); type: cell-based
Experimental: To investigate the facilitated diffusion of CRANAD-2, the time courses of CRANAD-2 uptake in 3T3-L1 cells were compared before and after differentiation. Two-photon imaging for 3T3-L1 cells was performed as follows. Fibroblast 3T3-L1 cells were differentiated following the protocol provided by Zenbio, Inc. (protocol No. ZBM0009.02). Ten microliters of CRANAD-2 (250 μM in DMSO) was added to the differentiated cells (1.0 ml). Cells were imaged after 10 min of incubation. A 940 nm laser was first used to capture an image for CRANAD-2 in 570-620 nm channel (Prairie Two-photon microscope, Middleton, Wis.). Next, the laser was tuned to 750 nm to capture autofluorescence of the cells to outline cell morphology.
IVIS imaging of 3T3-L1 cells with CRANAD-2 was performed as follows. To a 6-well plate seeded with preadipocytes or differentiated adipocytes, a 10 μL solution of CRANAD-2 (250 μM in DMSO) was added. The plate was subjected to imaging using IVIS imaging system with Ex=605 nm, Em=660 nm before and after addition of CRANAD-2. For triglyceride competition, the same protocol for two-photon imaging was used. The images were acquired at 20 min after addition of CRANAD-2. Studies were performed in triplicate.
The uptake of CRANAD-29 in 3T3-L1 cells before and after differentiation was compared. IVIS imaging of 3T3-L1 cells with CRANAD-29 was performed as follows. To a 6-well plate seeded with preadipocytes or differentiated adipocytes, a 10 μL solution of CRANAD-29 (250 μM in DMSO) was added. The plate was subjected to imaging using IVIS imaging system with Ex=640 nm, Em=700 nm before and after addition of CRANAD-29. For triglyceride competition and Hexarelin inhibition, the similar protocol for CRANAD-2 imaging was used. The final concentration of hexarelin was 12.5 μM, and the images were acquired at 3 hours after addition of CRANAD-29 and triglyceride/Hexarelin. Studies were performed in triplicate.

[6] = system: interscapular BAT; assay: Monitoring interscapular BAT mass change in STZ-induced diabetic mice; type: in vivo, Balb/c mice
Experimental: Monitoring was performed as follows. Two-month old Balb/c mice (n=5) were injected with STZ (80 mg/kg) for 7 days. When blood glucose levels reached 250 mg/dL on two consecutive days, mice were subjected to NIR imaging with CRANAD-29. Before imaging, the fur around the interscapular area was removed. Images were acquired at pre-injection, as well as 2- and 4-hours after i.v. injection. After imaging, mice were sacrificed, BAT from both groups was dissected, and weighted, and the linear correlation was established between in vivo fluorescence signal and weight of the dissected BATs. The same imaging procedure was conducted with the control group injected with the same volume of saline for 7 days (n=5).

[7] = system: interscapular BAT; assay: Monitoring BAT activation under cold exposure; type: in vivo, balb/c mice; conditions: 4° C. cold exposure
Experimental: BAT could be activated under various conditions including cold exposure. In this report, whether CRANAD-29 could be used to monitor BAT activation under these conditions was investigated as follows. Two-month old balb/c mice (n=5) were placed in a 4° C. cold room for 2 hours before i.v. injection of CRANAD-29. Images were acquired at 1-, 2-, 4-hours after probe injection, and mice were placed in the cold room between imaging sessions. Control mice (n=5) were placed in a 25° C. room. Images were captured at the same time points after CRANAD-29 injection.

[8] = system: inguinal sWAT; assay: Monitoring browning of subcutaneous WAT after CL 316,243 treatment; type: in vivo, C57BL6 mice; conditions: after 12 days CL 316,243 1.0 mg/kg i.p.
Experimental: Two-month old C57BL6 mice (n=5) were i.p. injected CL 316,243 (100 uL, 1.0 mg/kg) for 12 days, and the control mice (n=5) were i.p. injected with saline. On the 13th day, both groups were imaged after i.v. injection of CRANAD-29. Images were acquired at 1-, 2-, 4-hours after the probe injection. After the last imaging session, inguinal sWAT were dissected after scarification of the mice, and the dissected sWAT tissue was subjected to qPCR for UCP-1 expression and H&E staining

CN(C)c1ccc(/C=C/C2=CC(=C/C=C3C=CC(=[N+](C)C)C=C3)/O[B-](F)(F)O2)cc1 [CRANAD-2]
R(BAT), signal contribution from BAT, F(BAT)/F(intact) ([1]; fluorescence after vs before dissection of skin and WAT, roughly estimated): about 0.26 | contrast among the re-tested dyes ([1]; images one hour after probe injection): highest contrast | fluorescence signal from BAT (before vs after BAT removal) ([1]; stepwise dissection): able to label BAT | selectivity for BAT (over WAT) ([1]; stepwise dissection): low | cleared by ([2]; i.v. injection): ≤ 720 min | signal detectable until ([2]; i.v. injection): at least 180 min | time of uptake peak in BAT area after injection ([2]; i.v. injection): 120 min | labeling in ex vivo histology of BAT slices [3]: labeled oil droplets in brown adipose cells | staining of oil droplets in BAT cells [4]: able to clearly label oil droplets in BAT cells | time to maximal uptake [5]: ≤ 1 min

F[B-]1(F)OC(/C=C/c2cc3c4c(c2)CCCN4CCC3)=CC(/C=C/c2cc3c4c(c2)CCCN4CCC3)=[O+]1 [CRANAD-29]
F(BAT)/F(intact) ratio compared with CRANAD-2 and -3 ([1]; stepwise dissection): much higher | selectivity for BAT (over WAT) ([1]; stepwise dissection): excellent selectivity | injection dose at which fluorescence signal reached its plateau ([2]; dose optimization): 0.4 mg/kg | time at which uptake reached plateau after probe injection ([2]; mouse, in vivo, iv): around 2 h | labeling in ex vivo histology of BAT slices [3]: capable of labeling BAT cells | fluorescence signal from diabetic mice vs control group ([6]; STZ 80 mg/kg for 7 days, CRANAD-29 i.v.): significantly lower | correlation between BAT mass and fluorescence signal ([6]; STZ-treated and normal animals): excellent direct correlation | signal of cold-exposed animals vs control group ([7]; 1 hour after probe injection): 1.65 fold | signal of cold-exposed animals vs control group ([7]; 2 hours after probe injection): 1.59 fold | signal of cold-exposed animals vs control group ([7]; 4 hours after probe injection): 1.53 fold | CRANAD-29 signal around inguinal subcutaneous WAT, treated vs control group [8]: significantly higher | fluorescent signal from interscapular BAT area, treated vs control group [8]: higher fluorescent signal | uptake in undifferentiated cells over the time course [5]: no apparent uptake
